For 11 compounds, GI50 and TGI results are on record in PubChem BioAssay (NCI).

Values joined by “and” are separate entries in the source; they are usually repeats but may differ in a detail not shown here. Equal entries are not always repeated.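 Values below derive from 48-hour exposures of cells grown in 96-well plates, with endpoints linearly interpolated between the two concentrations bracketing the appropriate inhibition level. Abbreviation: GI50, concentration required for 50% inhibition of growth. At the TGI there is no net growth.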 Bounds are passed on as bounds.

Some test systems named below: RPMI-8226 leukemia; SN12C renal; SF-268 CNS; SNB-19 CNS; SF-539 CNS; SK-MEL-28 melanoma; HOP-92 NSCLC; SW-620 colon; CCRF-CEM leukemia; SK-OV-3 ovarian.
Common to all, as to experiment: inhibition of tumour cell growth, NCI panel, 48 h

With `CCN(CC)CCNc1ccc(CO)c2sc3ccccc3c(=O)c12`, the GI50 in the assay on RPMI-8226 leukemia was 2.51 µM and 1.59 µM; in the assay on SN12C renal it was 6.55 µM [middle of 4 runs]; with SF-268 CNS it was 3.62 µM; in the assay with SNB-19 CNS, 3.54 µM and 13.3 µM and 14.1 µM; in the assay on SF-539 CNS, 4.53 µM and 7.78 µM and 16.7 µM; in the assay with SK-MEL-28 melanoma, 2.29 µM. Also, the GI50 with HOP-92 NSCLC was 1.91 µM and 5.36 µM; in the assay on SW-620 colon, 4.69 µM. In addition, the TGI in the assay on SN12C renal is 20 µM [middle of 4 runs]; in the assay with SF-268 CNS it was 16.3 µM and 21.2 µM and 20.9 µM; in the assay with SNB-19 CNS it was 29.1 µM [middle of 4 runs]; in the assay with SF-539 CNS it was 24.1 µM [middle of 4 runs]; in the assay on HOP-92 NSCLC, 15 µM and 14.9 µM and 17.9 µM; with SW-620 colon it was 17.4 µM [middle of 4 runs].

On to `c1ccc(CN2CCC3(CC2)ONC2=NCCN23)cc1`, for which the GI50 in the assay on CCRF-CEM leukemia was 31 µM; in the assay with SK-OV-3 ovarian, 60.8 µM; with SN12C renal, 27.1 µM; with SF-268 CNS, 89.8 µM; in the assay with SNB-19 CNS, > 100 µM; in the assay with SF-539 CNS, 96.3 µM. Moreover, the GI50 in the assay with SK-MEL-28 melanoma is > 100 µM; in the assay with HOP-92 NSCLC it was 29.3 µM; in the assay on SW-620 colon, 75 µM. The TGI in the assay with CCRF-CEM leukemia was > 100 µM; with SK-OV-3 ovarian it was > 100 µM; with SN12C renal, 82 µM; in the assay on SF-268 CNS it was > 100 µM; in the assay on SNB-19 CNS, > 100 µM; in the assay with SF-539 CNS, > 100 µM. The figures for the TGI with SK-MEL-28 melanoma, in the assay on HOP-92 NSCLC and with SW-620 colon were > 100 µM, 59.1 µM and > 100 µM, respectively.

For `O=C1c2ccccc2C(=O)N1C/C=N/NS(=O)(=O)c1ccc(Cl)cc1`, the TGI with CCRF-CEM leukemia, in the assay with RPMI-8226 leukemia, in the assay with SN12C renal, in the assay on SF-268 CNS, in the assay on SNB-19 CNS and in the assay on SF-539 CNS was > 100 µM each time. Also, in the assay on SW-620 colon, the TGI is > 100 µM.

With `COc1ccc(CNCCCN2C(=O)c3ccc4c5c(ccc(c35)C2=O)C(=O)N(CCCNCCCCNCCCN)C4=O)c(OC)c1OC`, the GI50 in the assay with CCRF-CEM leukemia is 1.94 µM; in the assay on RPMI-8226 leukemia it was 2.7 µM; with SK-OV-3 ovarian, 3.18 µM; in the assay on SF-268 CNS, 0.955 µM; in the assay on SNB-19 CNS, 1.42 µM; in the assay on SF-539 CNS, 2.23 µM. Moreover, the figures for the GI50 with SK-MEL-28 melanoma and with SW-620 colon were 1.89 µM and 0.448 µM, respectively. Moreover, the TGI came to 17.8 µM in the assay on CCRF-CEM leukemia; 12.2 µM with RPMI-8226 leukemia; 83.2 µM in the assay on SK-OV-3 ovarian; 13.2 µM with SF-268 CNS; 11.4 µM with SNB-19 CNS; 5.3 µM in the assay on SF-539 CNS. Moreover, the TGI in the assay with SK-MEL-28 melanoma worked out at 4.81 µM; in the assay with SW-620 colon it was 2.52 µM.

Regarding `CCCC(=O)C(CC)/C(CCC(=O)N(Cc1ccccc1)Cc1ccccc1)=N/NC(=O)C[N+](C)(C)C` (stereo not drawn), the TGI in the assay on CCRF-CEM leukemia, in the assay with SK-OV-3 ovarian, in the assay on SN12C renal, in the assay on SF-268 CNS, with SNB-19 CNS and with SF-539 CNS was > 100 µM each time. For the same compound, the TGI in the assay on SK-MEL-28 melanoma, in the assay on HOP-92 NSCLC and in the assay with SW-620 colon was > 100 µM each time.

On to `COC(=O)/C1=C/C2CC(/C=C(/c3ccccc3)C(=O)O1)C2`, for which the TGI in the assay on CCRF-CEM leukemia was 70.5 µM; in the assay with RPMI-8226 leukemia it was 64.7 µM; in the assay on SK-OV-3 ovarian, 72.9 µM; with SN12C renal, 64.3 µM; in the assay with SNB-19 CNS it was > 100 µM; with SF-539 CNS, 89.8 µM. For the same compound, the TGI was 66.4 µM in the assay on SK-MEL-28 melanoma and > 100 µM in the assay on SW-620 colon.

For the compound `CC(=O)c1ccc(NCn2nc(-c3ccccc3O)oc2=S)cc1`, the GI50 with SN12C renal was 27 µM; with SF-268 CNS, > 100 µM; with SNB-19 CNS, > 100 µM; in the assay on SK-MEL-28 melanoma, > 100 µM; in the assay with HOP-92 NSCLC it was 42.8 µM; in the assay on SW-620 colon, 29.8 µM. In addition, the TGI is 64.9 µM in the assay with SN12C renal; > 100 µM in the assay with SF-268 CNS; > 100 µM with SNB-19 CNS; > 100 µM with SK-MEL-28 melanoma; > 100 µM with HOP-92 NSCLC; > 100 µM with SW-620 colon.

As to `CC(=O)N1C(=O)C(=O)c2cc(Cl)ccc21`, the TGI with RPMI-8226 leukemia, in the assay on SK-OV-3 ovarian, with SN12C renal, in the assay with SF-268 CNS, in the assay on SNB-19 CNS and in the assay with SF-539 CNS was > 100 µM each time. The TGI in the assay with SK-MEL-28 melanoma and in the assay with SW-620 colon was > 100 µM each time.

For the compound `O=C(/C=C/c1ccccc1)c1ccc(O)c(CN2CCN(c3cc4c(cc3F)c(=O)c(C(=O)O)cn4C3CC3)CC2)c1`, the GI50 was 0.598 µM with CCRF-CEM leukemia; 0.275 µM in the assay on RPMI-8226 leukemia; 2.77 µM with SK-OV-3 ovarian; 2.53 µM in the assay with SF-268 CNS; 0.984 µM with SNB-19 CNS; 0.465 µM with SF-539 CNS. Further, the GI50 was 2.13 µM in the assay on SK-MEL-28 melanoma and 2.28 µM with SW-620 colon. Besides, the TGI is > 100 µM in the assay with CCRF-CEM leukemia; 6.37 µM in the assay with RPMI-8226 leukemia; > 100 µM in the assay on SK-OV-3 ovarian; > 100 µM with SF-268 CNS; > 100 µM with SNB-19 CNS; > 100 µM with SF-539 CNS. Also, the TGI with SK-MEL-28 melanoma and with SW-620 colon was > 100 µM each time.

Regarding `COc1ccc2c(CCNS(=O)(=O)c3ccccc3)c(C(C)=O)[nH]c2c1[N+](=O)[O-]`, the TGI with CCRF-CEM leukemia is > 100 µM; in the assay with RPMI-8226 leukemia, > 100 µM; in the assay with SN12C renal, > 100 µM; in the assay with SF-268 CNS, > 100 µM; with SNB-19 CNS, > 100 µM; in the assay on SF-539 CNS it was 77.7 µM. For the same compound, the TGI with SW-620 colon was > 100 µM.

For `CC[O+]=c1cccc2ssnc1-2`, the TGI in the assay with CCRF-CEM leukemia, in the assay with SK-OV-3 ovarian, with SN12C renal, in the assay with SF-268 CNS, in the assay with SNB-19 CNS and in the assay with SF-539 CNS was > 100 µM in each case. The TGI in the assay with SK-MEL-28 melanoma and in the assay on SW-620 colon was > 100 µM in each case.
